A short description of series [1]: Pharmacokinetic study of doxorubicin formulations in mice (plasma, HPLC). Set-up: species or system Swiss albino mice. The note with it: mouse, in vivo, 10 mg/kg. The protocol:
Blood samples after collection were centrifuged at 4000 rpm for 20 min and the plasma was separated and frozen at -20°C until analysed. The frozen plasma was thawed and used for analysis.
1ml of acetonitrile was added to 100 µL of plasma, vortexed for 10 min, centrifuged at 3250 rpm for 10 min. The supernatant was withdrawn and 0.5ml of saturated ZnSO4 solution was added to it. The resulting solution was vortexed for 5 min and then centrifuged for 10 min at 3250 rpm. The upper organic layer was then withdrawn and dried under oxygen free nitrogen gas at 60°C. The residue obtained was then reconstituted with 200µL of Solvent A containing ZnSO4. 100 µL of this solution was then injected in the HPLC column.
Student's t-test was used for comparison between the three formulations.

In series [2] the test system is drug resistant (Pgp+) DLD-1 human colon tumour. Put plainly: Efficacy in nude athymic mice implanted with multidrug resistant, Pgp positive DLD-1 tumour xenografts. The note with it: mouse, in vivo. The protocol:
Animals, nude athymic mice, 4 mice/group (10 in Control group) implanted subcutaneously with human DLD-1 colon tumour via trocar implant.
All agents were administered to nude athymic mice i.v. via tail vein on day 5 and 12 after s.c. tumour implant with the multidrug resistant, Pgp positive, human colon tumour xenograft.

A further series relates to Dogs. Nature of the series: Subacute toxicity in dogs. The note with it: dog, in vivo. An excerpt: • clinical signs of toxicity, • body weight, • haemodynamic parameters, • haematology and • biochemical parameters TABLE 7

The text below walks through data of patent publication EP1435231B1, “Non-pegylated long-circulating liposomes” (Bharat Serums & Vaccines Ltd., priority 2002, dated 2004).

In series [1], Adriamycin^® had a Cl of 200.96 mL/h and a Kel of 4.852. Moreover, the “MTD relative to that of the liposomal formulations” value in series [2] is on record as “about half”. In the series on Dogs, the “Liver Function Test: aspartate aminotranferase, alanine aminotranferase and total bilirubin levels” value is on record as “Increase”; the “creatinine phosphokinase and lactate dehydrogenase levels” value is on record as “Increase”. Besides, in the series on Dogs (1 mg/kg), the Body weight entry is “decrease in the bodyweight”, the “Haemodynamic Parameters: Heart rate” value is given as “Increases by average + 29.17%” and the “Haemodynamic Parameters: Respiratory rate” value is listed as “Decreases by average -42.12%”.
